Measurements from publication PMC3956299 (Chembiochem : a European journal of chemical biology, 2009).

Assays:
[1] = molecular target: T1, Drosophila Golgi α-mannosidase II (dGMII) (Drosophila melanogaster, UniProt Q24451); assay type: biochemical
T1 sequence (Q24451 31-1108 limits assumed): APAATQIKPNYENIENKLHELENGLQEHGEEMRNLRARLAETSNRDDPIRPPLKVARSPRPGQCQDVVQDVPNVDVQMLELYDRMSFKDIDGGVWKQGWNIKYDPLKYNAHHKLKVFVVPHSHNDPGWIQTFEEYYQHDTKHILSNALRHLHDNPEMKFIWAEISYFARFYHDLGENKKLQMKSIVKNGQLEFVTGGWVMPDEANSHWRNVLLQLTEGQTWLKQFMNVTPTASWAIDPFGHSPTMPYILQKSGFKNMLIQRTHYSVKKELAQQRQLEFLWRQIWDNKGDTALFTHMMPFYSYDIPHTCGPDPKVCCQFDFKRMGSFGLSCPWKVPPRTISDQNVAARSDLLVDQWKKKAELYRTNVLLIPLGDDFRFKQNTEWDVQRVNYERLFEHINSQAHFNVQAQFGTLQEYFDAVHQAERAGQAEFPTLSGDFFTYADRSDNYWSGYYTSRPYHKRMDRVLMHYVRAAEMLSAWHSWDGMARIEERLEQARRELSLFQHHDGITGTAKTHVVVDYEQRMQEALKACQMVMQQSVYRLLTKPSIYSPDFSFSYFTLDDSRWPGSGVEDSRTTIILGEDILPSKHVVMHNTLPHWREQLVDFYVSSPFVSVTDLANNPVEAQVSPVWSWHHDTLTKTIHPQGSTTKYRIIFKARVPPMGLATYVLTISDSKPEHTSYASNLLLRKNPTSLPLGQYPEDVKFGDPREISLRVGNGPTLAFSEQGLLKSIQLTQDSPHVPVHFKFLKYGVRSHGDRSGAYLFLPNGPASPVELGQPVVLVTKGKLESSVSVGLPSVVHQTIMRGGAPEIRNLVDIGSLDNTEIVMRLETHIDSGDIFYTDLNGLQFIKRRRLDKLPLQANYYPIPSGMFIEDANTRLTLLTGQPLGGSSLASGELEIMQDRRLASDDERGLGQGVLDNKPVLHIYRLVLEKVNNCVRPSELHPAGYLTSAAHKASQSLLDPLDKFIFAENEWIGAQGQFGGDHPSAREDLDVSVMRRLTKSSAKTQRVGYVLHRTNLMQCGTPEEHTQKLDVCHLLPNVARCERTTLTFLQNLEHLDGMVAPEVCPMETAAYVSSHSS

[2] = test system: processing of influenza viral hemagglutinin in cultured MDCK cells; settings: cited from earlier work

SMILES: N[C@@H]1C[C@H](O)[C@H](O)[C@@H]1O [Compound 3, (1S, 2S, 3R, 4R)-4-aminocyclopentane-1,2,3-triol]
- inhibitory activity in words [1]: very poor inhibitor

SMILES: CS[C@@H]1[C@@H](N)[C@@H](O)[C@@H](O)[C@H]1O [Compound 1, Mannostatin A]
- effect on processing of influenza viral hemagglutinin [2]: effectively blocked the processing of influenza viral hemagglutinin

SMILES: CO[C@@H]1[C@@H](N)[C@@H](O)[C@@H](O)[C@H]1O [Compound 5, (1R, 2R, 3R, 4S, 5R)-4-Amino-5-methoxycyclopentane-1,2,3-triol]
- fold enhancement of potency on changing hydroxyl of 4 to methoxy ([1]; relative to 4 (4a)): ~ 4 fold
